Among the test systems are HOP-62; BT-549; HOP-92; SF-268; UO-31; UACC-62; OVCAR-3; M14; SNB-75; K562; SF-295; SW-620; A498; KM12; SN12C; Hs-578T; MOLT-4; LOX IMVI; OVCAR-4; HCC 2998.
What all share (assay): DTP human tumour cell line panel, 48 h

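1) Cells in 96-well plates. 2) Compound, 48 h, 5 concentrations. 3) Linear interpolation between surrounding doses. 4) Unreached endpoint = highest concentration. Here, GI50 denotes the concentration required for 50% inhibition of growth.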 Calls of active or inactive are those of the source. Cut-off read from the data, not from the text of the source: active = GI50 up to about 1.1 µM and inactive = higher. A value given as a limit tells only on which side of the number the result lay.

The source of these data is ChEMBL document CHEMBL1201862, “PubChem BioAssay data set” (2004).

As a reminder, the GI50 is the concentration giving 50% growth inhibition. Take `CCc1nnc(S)n1/N=C\c1ccc(-c2ccccc2[N+](=O)[O-])o1`: the GI50 with HOP-62 was 56.5 µM (inactive); with BT-549, 28.8 µM (inactive); in the assay on HOP-92, 49.3 µM (inactive); in the assay with SF-268, 36.7 µM (inactive); with UO-31 it was 41.5 µM (inactive); in the assay on UACC-62, 37.6 µM (inactive). Besides, the GI50 was 18.2 µM (inactive) in the assay with OVCAR-3; 39.7 µM (inactive) in the assay with M14; 32.1 µM (inactive) in the assay with SNB-75; 27.9 µM (inactive) with K562; 28.7 µM (inactive) in the assay with SF-295; 41.7 µM (inactive) with SW-620. The GI50 was 49.4 µM (inactive) with A498; 31.8 µM (inactive) in the assay with KM12; 47.3 µM (inactive) in the assay on SN12C; 37.4 µM (inactive) in the assay on Hs-578T; 19.4 µM (inactive) with MOLT-4; 28 µM (inactive) in the assay with LOX IMVI. The GI50 with OVCAR-4 was 44.8 µM (inactive).
In the case of `CC(=O)Oc1ccc2c3c1O[C@H]1[C@H](O)CC[C@@]4(O)[C@@H](C2)N(C)CC[C@]314`, the GI50 in the assay on HOP-62, in the assay on BT-549, in the assay with HOP-92, with SF-268, in the assay with UO-31 and in the assay with UACC-62 was > 100 µM (inactive) each time. The GI50 in the assay on OVCAR-3, in the assay with M14, with SF-295, in the assay on SW-620, with A498 and in the assay on KM12 was > 100 µM (inactive) each time. Moreover, the GI50 in the assay with SN12C, in the assay with Hs-578T, in the assay on MOLT-4, in the assay on LOX IMVI and in the assay on OVCAR-4 was > 100 µM (inactive) throughout.
Consider `CN(Cc1cnc2nc(N)nc(N)c2n1)c1ccc(C(=O)NC(CO)CCCO)cc1` (stereo unspecified), for which the GI50 in the assay with HOP-62, with BT-549, with SF-268, in the assay on UO-31, with UACC-62 and in the assay with OVCAR-3 was > 100 µM (inactive) throughout. Moreover, the GI50 in the assay with M14, in the assay on SNB-75, in the assay on K562, in the assay on SF-295, in the assay with SW-620 and with A498 was > 100 µM (inactive) in each case. Besides, the GI50 in the assay on KM12, with SN12C, in the assay with Hs-578T, with MOLT-4 and in the assay on LOX IMVI was > 100 µM (inactive) throughout.
In the case of `C=C1CC(OC(C)=O)/C=C(/C)CCC(C(C)(C)O)CC1O` (stereo unspecified), the GI50 with HOP-62, with BT-549, in the assay with HOP-92, with SF-268, with UO-31 and in the assay on UACC-62 was > 100 µM (inactive) throughout. Further, the GI50 with OVCAR-3, in the assay with M14, in the assay on SF-295, in the assay with SW-620, in the assay with A498 and with KM12 was > 100 µM (inactive) each time. For the same compound, the GI50 in the assay on SN12C, in the assay on Hs-578T, in the assay on HCC 2998, in the assay on MOLT-4, in the assay on LOX IMVI and in the assay with OVCAR-4 was > 100 µM (inactive) throughout.
As to `OCC1OC(n2cnc3c(/C=C(/O)c4ccccc4)ncnc32)C(O)C1O` (stereo unspecified), the GI50 with HOP-62 is 5.21 µM (inactive); with BT-549 it was 6.08 µM (inactive); with HOP-92 it was > 25.1 µM (inactive); with SF-268 it was 5.78 µM (inactive); in the assay with UO-31, 0.92 µM (active); with UACC-62, 8.3 µM (inactive). Besides, the GI50 in the assay on OVCAR-3 is 2.77 µM (inactive); in the assay with M14 it was 0.813 µM (active); in the assay with SNB-75, 0.7 µM (active); in the assay on K562, 2.83 µM (inactive); in the assay with SF-295 it was 5.13 µM (inactive); in the assay with SW-620 it was 0.875 µM (active). Besides, the GI50 is 2.16 µM (inactive) in the assay on A498; 4.62 µM (inactive) in the assay with KM12; 3.19 µM (inactive) with SN12C; 14.4 µM (inactive) with Hs-578T; 1.71 µM (inactive) in the assay with MOLT-4; 1.63 µM (inactive) in the assay on LOX IMVI. In addition, the GI50 in the assay with OVCAR-4 was 2.84 µM (inactive).
For the compound `CCOC(=O)/C=C1\Nc2ccccc2C12CCc1c([nH]c3ccccc13)C2C(=O)OCC` (stereo unspecified), the GI50 in the assay with HOP-62 is > 100 µM (inactive); in the assay with BT-549 it was 52.2 µM (inactive); in the assay on SF-268, 30.1 µM (inactive); in the assay on UO-31 it was 21.3 µM (inactive); in the assay on UACC-62, 59.3 µM (inactive); in the assay on OVCAR-3 it was 44.2 µM (inactive). The GI50 in the assay with M14 was 25.2 µM (inactive); in the assay on K562 it was 48.4 µM (inactive); with SF-295 it was 79.4 µM (inactive); in the assay with SW-620, 17.8 µM (inactive); with A498, 30.1 µM (inactive); in the assay on KM12 it was 20.5 µM (inactive). Moreover, the GI50 with SN12C was 44.3 µM (inactive); in the assay with Hs-578T, 58.7 µM (inactive); with HCC 2998, 59.3 µM (inactive); in the assay on MOLT-4 it was 8.79 µM (inactive); in the assay with LOX IMVI, 39.2 µM (inactive); in the assay with OVCAR-4 it was 16.3 µM (inactive).
As for `Cc1c(C)c(S(=O)(=O)N(CCCCCON)OCCCN)c(C)c2c1OC(C)(C)CC2`, the GI50 in the assay on HOP-62 was 16 µM (inactive); in the assay on BT-549, 15.5 µM (inactive); with HOP-92, 10.3 µM (inactive); in the assay on SF-268, 16.8 µM (inactive); in the assay on UO-31 it was 16.6 µM (inactive); in the assay with UACC-62, 14.3 µM (inactive). Moreover, the GI50 in the assay on OVCAR-3 was 14.5 µM (inactive); in the assay with M14 it was 7 µM (inactive); in the assay on SNB-75, 14.3 µM (inactive); with K562 it was 3.94 µM (inactive); with SF-295, 15.2 µM (inactive); in the assay on SW-620, 15 µM (inactive). Besides, the GI50 in the assay with A498 is 14.6 µM (inactive); with KM12, 13.9 µM (inactive); in the assay with SN12C it was 15.4 µM (inactive); in the assay with Hs-578T, 19.3 µM (inactive); with MOLT-4, 4.94 µM (inactive); with LOX IMVI, 9.73 µM (inactive). For the same compound, in the assay on OVCAR-4, the GI50 is 7.5 µM (inactive).
As for `CN(C(=O)[C@H](NC(=O)OCc1ccccc1)c1ccccc1)C1CCCCC1N1CCCC1` (stereo partly specified), the GI50 in the assay on HOP-62 was > 100 µM (inactive); with BT-549 it was > 100 µM (inactive); in the assay on HOP-92 it was 31.5 µM (inactive); with SF-268, 62.4 µM (inactive); with UO-31, 48.5 µM (inactive); with UACC-62, > 100 µM (inactive). The GI50 in the assay with OVCAR-3 was > 100 µM (inactive); in the assay with M14, 23.4 µM (inactive); in the assay on SNB-75 it was 97.3 µM (inactive); in the assay with K562 it was 29 µM (inactive); with SF-295, > 100 µM (inactive); in the assay with SW-620 it was > 100 µM (inactive). Moreover, the GI50 in the assay with A498 was 89.9 µM (inactive); in the assay with KM12, > 100 µM (inactive); with SN12C it was > 100 µM (inactive); in the assay on Hs-578T, 19.6 µM (inactive); with MOLT-4, 23.7 µM (inactive); in the assay with LOX IMVI, 77.6 µM (inactive). Besides, the GI50 with OVCAR-4 was 51.4 µM (inactive).
Regarding `O=C(O)C1C2CC3C(OC(=O)C31)C2Br` (stereo unspecified), the GI50 in the assay on HOP-62, in the assay on BT-549, with HOP-92, with SF-268, in the assay with UO-31 and in the assay with UACC-62 was > 100 µM (inactive) each time. Further, the GI50 in the assay on OVCAR-3 is > 100 µM (inactive); in the assay on M14, > 100 µM (inactive); with SNB-75 it was > 100 µM (inactive); with K562 it was > 47.8 µM (inactive); in the assay with SF-295, > 100 µM (inactive); in the assay on SW-620, > 100 µM (inactive). Also, the GI50 in the assay on A498 was > 100 µM (inactive); in the assay on KM12 it was > 100 µM (inactive); in the assay on SN12C, > 100 µM (inactive); in the assay on Hs-578T, > 100 µM (inactive); in the assay on MOLT-4, > 39.5 µM (inactive); in the assay on LOX IMVI, > 100 µM (inactive). In addition, the GI50 with OVCAR-4 was > 100 µM (inactive).
Consider `O=C(O)/C(Cc1ccc([N+](=O)[O-])cc1)=N\O`, for which the GI50 with HOP-62 is > 100 µM (inactive); in the assay with BT-549 it was 76.2 µM (inactive); in the assay with HOP-92 it was 27.9 µM (inactive); in the assay on SF-268, > 100 µM (inactive); with UO-31, 23.8 µM (inactive); in the assay with UACC-62 it was > 100 µM (inactive). In addition, the GI50 in the assay with OVCAR-3, with M14, with K562, in the assay with SF-295, in the assay on SW-620 and in the assay on A498 was > 100 µM (inactive) each time. Further, the GI50 with KM12 was > 100 µM (inactive); in the assay with SN12C it was > 100 µM (inactive); with Hs-578T, 31.8 µM (inactive); with HCC 2998 it was > 100 µM (inactive); in the assay on LOX IMVI, > 100 µM (inactive); in the assay on OVCAR-4, 89.5 µM (inactive).
For the compound `COc1cc(C(c2ccc3c(c2)OCO3)C2SCCCS2)cc(OC)c1OC` (stereo unspecified), the GI50 in the assay with HOP-62 is 3.03 µM (inactive); with BT-549, 8.79 µM (inactive); with SF-268, 6.21 µM (inactive); in the assay with UO-31, 6.22 µM (inactive); in the assay on UACC-62 it was 2.75 µM (inactive); in the assay on OVCAR-3, 3.14 µM (inactive). Besides, the GI50 was 3.6 µM (inactive) in the assay with M14; 2.21 µM (inactive) in the assay with SNB-75; 1.85 µM (inactive) in the assay with K562; 1.94 µM (inactive) with SF-295; 3.11 µM (inactive) in the assay on SW-620; 1.9 µM (inactive) in the assay with A498. Besides, the GI50 in the assay on KM12 was 3.09 µM (inactive); in the assay with SN12C it was 2.51 µM (inactive); with Hs-578T, 2.33 µM (inactive); in the assay with HCC 2998 it was 2.99 µM (inactive); in the assay on MOLT-4, 2.87 µM (inactive); with OVCAR-4, 6.65 µM (inactive).
